Earlier results as cited in PMC9663686, “Proline, hydroxyproline, and pyrrolidone carboxylic acid derivatives as highly efficient but reversible transdermal permeation enhancers” (Scientific Reports, 2022).

Key:
HaCaT and 3T3 cells = conditions: read-out: in vitro cellular toxicities on HaCaT and 3T3 cells; cited from earlier work
rat skin = conditions: rats; cited from earlier work
rats = conditions: cited from earlier work

For CCCCCCCCCCCCOC(=O)CCCCCN.CCCCCCCCCCCCOC(=O)CCCCCNC(=O)O [Transkarbam 12], the IC50 (HaCaT and 3T3 cells) is given as 21 to 26 µM, the “in vivo dermal irritation and toxicity” value (rat skin) is given as “low in vivo dermal irritation and toxicity” and the “acute oral toxicity in rats” value (rats) is given as “no acute oral toxicity in rats”.
